According to the supplement of paper PMC10883282:

Legend:
Experiment in all cases: relative viability vs DMSO control (72 h) (fraction); higher = more viable cells
[1] = tested on: A204
How it was run: (§1)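 A 5 µM positive control and 0.1% DMSO vehicle ran alongside sarcoma cell lines seeded in 384-well plates to reach 80–90% confluence. Serially diluted compound, 2.5 µl from source plates of 10 mM to 0.0002 mM, was added after 24 h, and the plates were held 72 h at 37 °C, 5% CO2. Relative viability was worked out from ATPLite readings as percent growth averaged over up to triplicate wells. The values were rescaled so that 1 is full and 0 is none.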

[2] = tested on: G401
How it was run: as §1

[3] = tested on: HS729
How it was run: as §1

[4] = tested on: KHOS-NP
How it was run: as §1

[5] = tested on: MES-SA
How it was run: as §1

[6] = tested on: RD
How it was run: as §1

[7] = tested on: SK-ES-1
How it was run: as §1

[8] = tested on: SK-LMS-1
How it was run: as §1

[9] = tested on: SW684
How it was run: as §1

[10] = tested on: SW872
How it was run: as §1

[11] = tested on: SYO-1
How it was run: as §1

[12] = tested on: VA-ES-BJ
How it was run: as §1

COc1cc(N2CCC(N3CCN(C)CC3)CC2)ccc1Nc1ncc(Cl)c(Nc2ccccc2P(C)(C)=O)n1 [Brigatinib]
Details	relative viability
[1], 0.00017 µM	1.06
[1], 0.00051 µM	1.08
[1], 0.00152 µM	1.03
[1], 0.00457 µM	1.06
[1], 0.01372 µM	1.04
[1], 0.04115 µM	1.03
[1], 0.1235 µM	1.06
[1], 0.3704 µM	0.991
[1], 1.111 µM	0.692
[1], 3.333 µM	0.262
[1], 10 µM	0.0135
[2], 0.00017 µM	0.983
[2], 0.00051 µM	0.972
[2], 0.00152 µM	0.9624
[2], 0.00457 µM	0.9721
[2], 0.01372 µM	0.941
[2], 0.04115 µM	0.909
[2], 0.1235 µM	0.923
[2], 0.3704 µM	0.764
[2], 1.111 µM	0.626
[2], 3.333 µM	0.261
[2], 10 µM	0.0657
[3], 0.00017 µM	0.91
[3], 0.00051 µM	0.925
[3], 0.00152 µM	0.933
[3], 0.00457 µM	0.909
[3], 0.01372 µM	0.858
[3], 0.04115 µM	0.771
[3], 0.1235 µM	0.685
[3], 0.3704 µM	0.595
[3], 1.111 µM	0.417
[3], 3.333 µM	0.199
[3], 10 µM	0.0341
[4], 0.00017 µM	1.04
[4], 0.00051 µM	1.06
[4], 0.00152 µM	1.05
[4], 0.00457 µM	1.02
[4], 0.01372 µM	1.03
[4], 0.04115 µM	1.03
[4], 0.1235 µM	0.994
[4], 0.3704 µM	0.985
[4], 1.111 µM	0.852
[4], 3.333 µM	0.534
[4], 10 µM	0.21
[5], 0.00017 µM	0.864
[5], 0.00051 µM	0.843
[5], 0.00152 µM	0.866
[5], 0.00457 µM	0.893
[5], 0.01372 µM	0.859
[5], 0.04115 µM	0.894
[5], 0.1235 µM	0.956
[5], 0.3704 µM	1.01
[5], 1.111 µM	0.948
[5], 3.333 µM	0.385
[5], 10 µM	0.135
[6], 0.00017 µM	1.06
[6], 0.00051 µM	1.06
[6], 0.00152 µM	1.07
[6], 0.00457 µM	1.05
[6], 0.01372 µM	1.05
[6], 0.04115 µM	0.978
[6], 0.1235 µM	0.769
[6], 0.3704 µM	0.459
[6], 1.111 µM	0.342
[6], 3.333 µM	0.168
[6], 10 µM	0.0473
[7], 0.00017 µM	0.96
[7], 0.00051 µM	0.986
[7], 0.00152 µM	0.971
[7], 0.00457 µM	0.973
[7], 0.01372 µM	1
[7], 0.04115 µM	0.951
[7], 0.1235 µM	0.825
[7], 0.3704 µM	0.496
[7], 1.111 µM	0.251
[7], 3.333 µM	0.0717
[7], 10 µM	0.0369
[8], 0.00017 µM	1.04
[8], 0.00051 µM	1
[8], 0.00152 µM	1.02
[8], 0.00457 µM	0.986
[8], 0.01372 µM	0.998
[8], 0.04115 µM	1.02
[8], 0.1235 µM	1.02
[8], 0.3704 µM	0.924
[8], 1.111 µM	0.757
[8], 3.333 µM	0.556
[8], 10 µM	0.331
[9], 0.00017 µM	1.04
[9], 0.00051 µM	1.05
[9], 0.00152 µM	1.05
[9], 0.00457 µM	0.992
[9], 0.01372 µM	1.06
[9], 0.04115 µM	1.06
[9], 0.1235 µM	1.04
[9], 0.3704 µM	1.02
[9], 1.111 µM	0.921
[9], 3.333 µM	0.573
[9], 10 µM	0.2498
[10], 0.00017 µM	0.989
[10], 0.00051 µM	0.969
[10], 0.00152 µM	0.967
[10], 0.00457 µM	0.94
[10], 0.01372 µM	0.926
[10], 0.04115 µM	0.885
[10], 0.1235 µM	0.818
[10], 0.3704 µM	0.626
[10], 1.111 µM	0.469
[10], 3.333 µM	0.321
[10], 10 µM	0.288
[11], 0.00017 µM	0.95
[11], 0.00051 µM	0.952
[11], 0.00152 µM	0.922
[11], 0.00457 µM	0.889
[11], 0.01372 µM	0.846
[11], 0.04115 µM	0.768
[11], 0.1235 µM	0.706
[11], 0.3704 µM	0.501
[11], 1.111 µM	0.239
[11], 3.333 µM	0.0457
[11], 10 µM	-0.0131
[12], 0.00017 µM	0.946
[12], 0.00051 µM	0.945
[12], 0.00152 µM	0.943
[12], 0.00457 µM	0.941
[12], 0.01372 µM	0.983
[12], 0.04115 µM	0.91
[12], 0.1235 µM	0.865
[12], 0.3704 µM	0.662
[12], 1.111 µM	0.272
[12], 3.333 µM	0.144
[12], 10 µM	0.125
